The text below walks through data of US12667572B2, “Tricyclic compounds useful in the treatment of cancer, autoimmune and inflammatory disorders” (SCHRÖDINGER, INC., priority 2021, dated 2026).

Experiment [1] addresses T1, full-length MALT1 protein His-MALT1(1-824) (Homo sapiens, UniProt Q9UDY8).
T1 construct: full-length MALT1 protein His-MALT1(1-824); His (N); made in house; host or cells: baculovirus-infected insect cells
T1 sequence (Q9UDY8 1-824): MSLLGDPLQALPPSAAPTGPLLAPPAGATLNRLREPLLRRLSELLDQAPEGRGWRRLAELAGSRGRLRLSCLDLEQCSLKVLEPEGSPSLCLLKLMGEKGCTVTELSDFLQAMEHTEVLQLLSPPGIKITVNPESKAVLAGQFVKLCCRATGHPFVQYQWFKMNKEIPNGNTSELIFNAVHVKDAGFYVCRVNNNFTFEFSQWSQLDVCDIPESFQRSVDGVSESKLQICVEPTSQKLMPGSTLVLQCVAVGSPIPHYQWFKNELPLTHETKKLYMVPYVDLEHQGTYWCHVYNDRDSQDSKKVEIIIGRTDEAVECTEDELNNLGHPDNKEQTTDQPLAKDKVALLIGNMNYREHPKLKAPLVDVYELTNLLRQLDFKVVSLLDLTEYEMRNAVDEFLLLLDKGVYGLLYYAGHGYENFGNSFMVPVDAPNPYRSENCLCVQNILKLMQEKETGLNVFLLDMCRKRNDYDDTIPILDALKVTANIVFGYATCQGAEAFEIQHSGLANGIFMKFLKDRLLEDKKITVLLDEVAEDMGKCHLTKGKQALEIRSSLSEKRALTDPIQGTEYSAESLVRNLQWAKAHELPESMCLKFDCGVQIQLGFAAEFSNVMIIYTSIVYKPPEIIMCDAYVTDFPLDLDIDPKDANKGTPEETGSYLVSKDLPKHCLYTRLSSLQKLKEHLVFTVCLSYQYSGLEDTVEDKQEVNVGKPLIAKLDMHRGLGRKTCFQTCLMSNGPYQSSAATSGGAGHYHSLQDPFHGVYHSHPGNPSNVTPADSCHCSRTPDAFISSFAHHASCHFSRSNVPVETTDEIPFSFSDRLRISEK
The experiment in a line: MALT1 protease assay, Assay 1 (2 nM MALT1, Ac-LRSR-AMC substrate). The experiment is classed as biochemical. The settings on record: 2 nM MALT1, 50 μM Ac-LRSR-AMC, 2 h pre-incubation, 8 hr incubation at RT. In a few lines: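 Full-length His-MALT1(1-824) from baculovirus-infected insect cells, pre-incubated with compound 2 h at RT (0.1% DMSO). Then 50 μM Ac-LRSR-AMC added. Buffer was Tris pH 7.5 with 600 mM sodium citrate, DTT, EDTA and BSA. Fluorescence (ex 355/em 460 nm) was read after 8 h at RT and normalized to high/low controls. IC50 from non-linear regression.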

Experiment [2] concerns IL10 secretion in OCI-LY10 cells. The experiment in a line: Human IL10 secretion assay, Assay 1 (HTRF). The class given is cell-based. To be noted: 24 h incubation, read-out: IL-10 Secretion IC50 [nM] Assay 1. How it is done:
IL10 is one of the cytokines that are regulated via activation of NF-kB signaling. For example, in ABC-DLBCL cell lines, the activated NF-kB signaling leads to increased IL10 secretion. Inhibition of NF-kB signaling has been shown leading to decreased IL10 secretion.
Assay 1: OCI-LY10 cells were seeded in IMEM supplemented with 20% fetal bovine serum at 3×10^5 cells per well in 96-well round bottom plates (Corning 3799, Corning), treated with 100 nL of 3-fold serial compound dilutions, starting at 10 mM. The final vehicle concentration was 0.1% DMSO in all wells. After 24 h incubation, the cells were transferred to 96-PCR plates (Axygen: PCR-96-FLT-C) and centrifuged, then 16 μL of cell culture media was transferred to HTRF plates and IL10 levels were measured using human IL-10 Assay Kits (Cisbio) using HTRF format. The signals were transformed to percentage of remaining activity by using the high control (HC, median of signal from wells containing cells treated with DMSO) and low control (LC, median of signal from wells with no cells). IC50 values (nM) were determined using 4-parametric curve-fitting and Hill coefficient obtained using Graph Pad Prism (Graph Pad software, Inc, USA) with non-linear regression analysis.
(In general: TR-FRET usually uses a lanthanide donor and a delayed reading to cut background.)

As for `C[C@]1(C(F)(F)F)C[C@H](C(=O)Nc2cnc(-n3nccn3)c(Cl)c2)c2cnc3cc(Cl)nn3c21` (single isomer, unassigned) [Example 38, 2-chloro-N-(5-chloro-6-(2H-1,2,3-triazol-2-yl)pyridin-3-yl)-8-methyl-8-(trifluoromethyl)-7,8-dihydro-6H-cyclopenta[e]pyrazolo[1,5-a]pyrimidine-6-carboxamide], the results for the IC50 in experiment [1] and in experiment [2] were less than 10 nM and 100 to 1000 nM, respectively.
